In US20250179103A1, “6-OXODECAHYDROPYRROLO[1,2-A][1,5]DIAZOCINE AND 6-OXODECAHYDRO-4H-PYRROLO[2,1-D][1,5]THIAZOCINE DERIVATIVES AS STAT3 AND STAT6 MODULATORS FOR THE TREATMENT OF CANCER AND INFLAMMATORY CONDITIONS” (Recludix Pharma, Inc., priority 2022, published 2025):

Experiments:
[1] = tested on: pY705-STAT3 in Peripheral Blood Mononuclear Cells (PBMC); test: MSD-pSTAT-PBMC Assay (pSTAT3, IL-6 stimulated); type: cell-based, Human; conditions: Homo sapiens, compound 3 hrs, then 10 ng/mL IL-6 for 10 min
From the text: Cryopreserved Peripheral Blood Mononuclear Cells (PBMC) are from AllCells. Recombinant Human IL-4 and IL-6 are from Peprotech. Mouse monoclonal anti-STAT3 antibody, rabbit monoclonal anti-pY705-STAT3 antibody, rabbit monoclonal Anti-pY641-STAT6 antibody, and lysis buffer are from Cell Signaling Technology (CST). Mouse monoclonal anti-STAT6 antibody is from BioLegend. Assay plates, blocker, and anti-rabbit secondary antibody are from Meso Scale Discovery (MSD).
Cryopreserved PBMCs were thawed out and allowed to recover overnight in IMDM+10% heat-inactivated FBS prior to plating 50,000 (STAT3) or 25,000 (STAT6) cells per well in 96-well U-bottom tissue culture plates. Cells were treated with compound for 3 hrs, then stimulated with 10 ng/mL IL-6 (STAT3) or 1 ng/mL IL-4 (STAT6) for 10 min. Cells were then spun down and washed with ice-cold PBS prior to lysing the cell pellet with 1× lysis buffer (CST) with 1×HALT protease and phosphatase inhibitor cocktail (Thermo). Lysates were transferred to and incubated overnight at 4° C. with shaking in QuickPlex 96-well high bind assay plates (MSD) pre-coated overnight with 30 μL per well of 0.6 μg/mL mouse monoclonal anti-STAT3 antibody (STAT3) or 2 μg/mL mouse monoclonal anti-STAT6 antibody (STAT6) in 1×PBS, and pre-blocked for 1 hour with 3% Blocker-A (MSD). Captured protein in the assay plates were then washed and probed with 25 μL per well of 0.25 μg/ml rabbit monoclonal anti-pY705-STAT3 antibody (STAT3) or […] rabbit monoclonal Anti-pY641-STAT6 antibody (STAT6) in 1% Blocker-A for 1 hour at room temperature with shaking, then washed and probed with 25 ul per well of 1 ug/ml Sulfo-TAG Labeled Goat Anti-Rabbit Antibody (MSD) in 1% Blocker-A for 1 hour at room temperature with shaking. Assay plates were then washed and 150 μL of 1× Read Buffer-T (MSD) was added to each well prior to reading on an SQ120 MSD Plate Reader. Assay signal from each sample was subtracted by the signal from unstimulated control wells and normalized to DMSO control wells. IC50 values were calculated using Graph Pad Prism Dose-Response Nonlinear Regression with variable slope. For both pSTAT3 and pSTAT6 A=≤100 nM; B=>100-1000 nM; C=>1000-3000 nM; and D=>3 μM.

[2] = tested on: pY641-STAT6 in Peripheral Blood Mononuclear Cells (PBMC); test: MSD-pSTAT-PBMC Assay (pSTAT6, IL-4 stimulated); type: cell-based, Human; conditions: Homo sapiens, compound 3 hrs, then 1 ng/mL IL-4 for 10 min
In short: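 Phospho-STAT readout used MSD electrochemiluminescence with total STAT3 or STAT6 capture in lysates of cryopreserved human PBMCs. Cells had 3 h compound exposure before a 10 min cytokine pulse: IL-6 10 ng/mL for pSTAT3, IL-4 1 ng/mL for pSTAT6. IC50 came from background-subtracted, DMSO-normalised signal, with categories A≤100 nM up to D>3 μM.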

SMILES | IC50 [1] [µM] | IC50 [2] [µM]
CCN1CC[C@H]2CC[C@@H](C(=O)N3C[C@@H](C#N)[C@H](c4ccccc4)C3)N2C(=O)[C@@H](NC(=O)c2cc3cc(C(F)(F)P(=O)(OCOC(=O)C(C)(C)C)OCOC(=O)C(C)(C)C)ccc3s2)C1 (single isomer, unassigned) [Compound 281, ((((2-(((5S,8S, 10aR)-8-((3S,4R or 3R,4S)-3-cyano-4-phenyl-pyrrolidine-1-carbonyl)-3-ethyl-6-oxodecahydro-pyrrolo[1,2-a][1,5]diazocin-5-yl)carbamoyl)benzo[b]thiophen-5-yl)difluoro-methyl)phos-phoryl)bis(oxy)) bis(methylene) bis(2,2-dimethyl-propanoate)] | ≤ 0.1 | ≤ 0.1
CC(=O)N1CC[C@H]2CC[C@@H](C(=O)N3C[C@@H](C#N)[C@H](c4ccccc4)C3)N2C(=O)[C@@H](NC(=O)c2cc3cc(C(F)(F)P(=O)(OCOC(=O)OC(C)C)OCOC(=O)OC(C)C)ccc3s2)C1 (single isomer, unassigned) [Compound 282, ((((2-(((5S,8S, 10aR)-3-acetyl-8-((3S,4R or 3R,4S)-3-cyano-4-phenyl-pyrrolidine-1-carbonyl)-6-oxodecahydro-pyrrolo[1,2-a][1,5]diazocin-5-yl)carbamoyl)benzo[b]thiophen-5-yl)difluoro-methyl)phos-phoryl)bis(oxy)) bis(methylene) diisopropyl bis(carbonate)] | 1 to 3 | ≤ 0.1
CC(=O)N1CC[C@H]2CC[C@@H](C(=O)N3C[C@H](c4ccccc4)[C@@H](C#N)C3)N2C(=O)[C@@H](NC(=O)c2cc3cc(C(F)(F)P(=O)(OCOC(=O)OC(C)C)OCOC(=O)OC(C)C)ccc3s2)C1 (single isomer, unassigned) [Compound 285, ((((2-(((5S,8S, 10aR)-3-acetyl-8-((3R,4S or 3S,4R)-3-cyano-4-phenyl-pyrrolidine-1-carbonyl)-6-oxodecahydro-pyrrolo[1,2-a][1,5]diazocin-5-yl)carbamoyl)benzo[b]thiophen-5-yl)difluoro-methyl)phos-phoryl)bis(oxy)) bis(methylene) diisopropyl bis(carbonate)] | 0.1 to 1 | ≤ 0.1
CCCC(=O)SCCOP(=O)(OCOC(=O)OC(C)C)C(F)(F)c1ccc2ccc(C(=O)N[C@H]3CN(C(C)=O)CC[C@H]4CC[C@@H](C(=O)N5C[C@H](c6cc[nH]c(=O)c6)[C@@H](C#N)C5)N4C3=O)cc2c1 (single isomer, unassigned) [Compound 303, S-(2-((((7-(((5S,8S, 10aR)-3-acetyl-8-((3R,4S or 3S,4R)-3-cyano-4-(2-oxo-1,2-dihydro-pyridin-4-yl)pyrrolidine-1-carbonyl)-6-oxodecahydro-pyrrolo[1,2-a][1,5]diazocin-5-yl)carbamoyl)naphthalen-2-yl)difluoro-methyl)(((iso-propoxy-carbonyl)oxy)methoxy)phosphoryl)oxy)ethyl) butanethioate] | 1 to 3 | 0.1 to 1
CCCC(=O)SCCOP(=O)(OCCSC(=O)CCC)C(F)(F)c1ccc2ccc(C(=O)N[C@H]3CN(C(C)=O)CC[C@H]4CC[C@@H](C(=O)N5C[C@H](c6cc[nH]c(=O)c6)[C@@H](C#N)C5)N4C3=O)cc2c1 (single isomer, unassigned) [Compound 304, S,S′-(((((7-(((5S,8S, 10aR)-3-acetyl-8-((3R,4S or 3S,4R)-3-cyano-4-(2-oxo-1,2-dihydro-pyridin-4-yl)pyrrolidine-1-carbonyl)-6-oxodecahydro-pyrrolo[1,2-a][1,5]diazocin-5-yl)carbamoyl)naphthalen-2-yl)difluoro-methyl)phos-phoryl)bis(oxy))bis(ethane-2,1-diyl))di-butanethioate] | > 3 | 0.1 to 1
CC(=O)N1CC[C@H]2CC[C@@H](C(=O)N3C[C@@H](C#N)[C@H](c4cc[nH]c(=O)c4)C3)N2C(=O)[C@@H](NC(=O)c2ccc3ccc(C(F)(F)P(=O)(OCCSC(=O)CC(C)C)OCCSC(=O)CC(C)C)cc3c2)C1 (single isomer, unassigned) [Compound 306, S,S′-(((((7-(((5S,8S, 10aR)-3-acetyl-8-((3S,4R or 3r,4S)-3-cyano-4-(2-oxo-1,2-dihydro-pyridin-4-yl)pyrrolidine-1-carbonyl)-6-oxodecahydro-pyrrolo[1,2-a][1,5]diazocin-5-yl)carbamoyl)naphthalen-2-yl)difluoro-methyl)phos-phoryl)bis(oxy))bis(ethane-2,1-diyl)) bis(3-methylbutane-thioate)] | > 3 | 1 to 3
CCN1CC[C@H]2CC[C@@H](C(=O)N3C[C@@H](C#N)[C@H](c4ccccc4)C3)N2C(=O)[C@@H](NC(=O)c2cc3cc(C(F)(F)P(=O)(OCCSC(=O)C(C)(C)C)OCCSC(=O)C(C)(C)C)ccc3s2)C1 (single isomer, unassigned) [Compound 330, S,S′-(((((2-(((5S,8S,10aR)-8-((3S,4R or 3R,4S)-3-cyano-4-phenylpyrrolidine-1-carbonyl)-3-ethyl-6-oxodecahydropyrrolo[1,2-a][1,5]diazocin-5-yl)carbamoyl)benzo[b]thiophen-5-yl)difluoromethyl)phosphoryl)bis(oxy))bis(ethane-2,1-diyl)) bis(2,2-dimethylpropanethioate)] | 1 to 3 | 1 to 3
CCN1CC[C@H]2CC[C@@H](C(=O)N3C[C@@H](C#N)[C@H](c4ccccc4)C3)N2C(=O)[C@@H](NC(=O)c2cc3cc([C@H](F)P(=O)(OCCSC(=O)CC(C)C)OCCSC(=O)CC(C)C)ccc3s2)C1 (single isomer, unassigned) [Compound 339, S,S′-(((((R or S)-(2-(((5S,8S,10aR)-8-((3S,4R or 3R,4S)-3-cyano-4-phenylpyrrolidine-1-carbonyl)-3-ethyl-6-oxodecahydropyrrolo[1,2-a][1,5]diazocin-5-yl)carbamoyl)benzo[b]thiophen-5-yl)fluoromethyl)phosphoryl)bis(oxy))bis(ethane-2,1-diyl))bis(3-methylbutane thioate)] | 1 to 3 | 0.1 to 1
CC(C)(C)C(=O)SCCOP(=O)(OCCSC(=O)C(C)(C)C)C(F)(F)c1ccc2ccc(C(=O)N[C@H]3CN(CC(F)F)CC[C@H]4CC[C@@H](C(=O)N5C[C@@H](C#N)[C@H](c6ccccc6)C5)N4C3=O)cc2c1 (single isomer, unassigned) [Compound 342, S,S′-(((((7-(((5S,8S,10aR)-8-((3S,4R or 3R,4S)-3-cyano-4-phenylpyrrolidine-1-carbonyl)-3-(2,2-difluoroethyl)-6-oxodecahydropyrrolo[1,2-a][1,5]diazocin-5-yl)carbamoyl)naphthalen-2-yl)difluoromethyl)phosphoryl)bis(oxy))bis (ethane-2,1-diyl))bis(2,2-dimethylprop anethioate)] | > 3 | 0.1 to 1
CCN1CC[C@H]2CC[C@@H](C(=O)N3C[C@@H](C#N)[C@H](c4ccccc4)C3)N2C(=O)[C@@H](NC(=O)c2ccc3ccc(C(F)(F)P(=O)(OCCSC(=O)C(C)(C)C)OCCSC(=O)C(C)(C)C)cc3c2)C1 (single isomer, unassigned) [Compound 343, S,S′-(((((7-(((5S,8S,10aR)-8-((3S,4R or 3R,4S)-3-cyano-4-phenylpyrrolidine-1-carbonyl)-3-ethyl-6-oxodecahydropyrrolo[1,2-a][1,5]diazocin-5-yl)carbamoyl)naphthalen-2-yl)difluoromethyl)phosphoryl)bis(oxy))bis(ethane-2,1-diyl))bis(2,2-dimethylpropanethioate)] | 1 to 3 | 0.1 to 1
CC(C)(C)C(=O)OCOP(=O)(OCOC(=O)C(C)(C)C)C(F)(F)c1ccc2ccc(C(=O)N[C@H]3CN(CC(F)F)CC[C@H]4CC[C@@H](C(=O)N5C[C@@H](C#N)[C@H](c6ccccc6)C5)N4C3=O)cc2c1 (single isomer, unassigned) [Compound 346] | 0.1 to 1 | ≤ 0.1
